Data taken from paper PMC10071493 (ACS chemical neuroscience, 2021).

Biological target: MC-I from the bovine heart (mitochondrial complex I) (Bos taurus, UniProt P25708)
Experiment: microscale thermophoresis, label-free
Format: binding

MC-I from the bovine heart (mitochondrial complex I), sequence (P25708 21-464, one chain of several): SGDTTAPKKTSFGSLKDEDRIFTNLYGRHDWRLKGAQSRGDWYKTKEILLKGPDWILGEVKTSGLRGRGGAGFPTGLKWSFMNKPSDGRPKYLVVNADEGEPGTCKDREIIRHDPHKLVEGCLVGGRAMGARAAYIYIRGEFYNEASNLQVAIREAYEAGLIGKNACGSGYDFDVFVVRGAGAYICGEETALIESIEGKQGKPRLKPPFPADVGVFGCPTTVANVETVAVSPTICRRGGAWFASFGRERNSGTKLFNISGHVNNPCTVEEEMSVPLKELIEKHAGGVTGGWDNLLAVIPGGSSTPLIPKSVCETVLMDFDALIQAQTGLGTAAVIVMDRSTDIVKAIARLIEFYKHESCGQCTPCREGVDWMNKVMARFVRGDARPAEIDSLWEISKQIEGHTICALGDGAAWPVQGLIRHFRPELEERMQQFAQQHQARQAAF

With COc1ccc2[nH]cc(CCNC(=O)CC(=O)CCc3ccc(F)cc3)c2c1 [compound 2, 5-(4-Fluorophenyl)-N-(2-(5-methoxy-1H-indol-3-yl)ethyl)-3-oxo-pentanamide] the Kd was about 500 nM.
